# Patent US20260007131A1, “HERBICIDAL COMPOSITION CONTAINING DIFLUOROBUTENOIC ACID AMIDE COMPOUND” (ISHIHARA SANGYO KAISHA, LTD., priority 2022, published 2026)
# How the values were obtained:
# Format in all cases: in vivo
# [1] = system: black nightshade (Solanum nigrum); experiment: Herbicidal effect on black nightshade (foliar treatment); details: Comparative Test 1, black nightshade, read-out: Growth inhibition rate
# Experimental: (§1) Upland soil was put into a 1/300,000 hectare (ha) pot, seeds of barnyardgrass (Echinochloa crus-galli) were sown, and about 1.5 cm of cover soil was put. The barnyardgrass was grown for 10 days in a greenhouse until it reached a predetermined leaf stage. […] The spray solution was sprayed over the grown barnyardgrass with a small sprayer for foliar treatment.
# (§2) Upland soil was put into a 1/300,000 hectare (ha) pot, seeds of barnyardgrass (Echinochloa crus-galli), crabgrass (Digitaria sanguinalis), green foxtail (Setaria viridis), wild oat (Avena fatua), Italian ryegrass (Lolium multiflorum), foxtail shortawn (Alopecurus aequalis), annual bluegrass (Poa annua), redroot pigweed (Amaranthus retroflexus), common chickweed (Stellaria media) common lambsquarters (Chenopodium album) and black nightshade (Solanum nigrum) were sown, and about 1.5 cm of cover soil was put. The plants were grown for 10 days in a greenhouse until they reached a predetermined leaf stage.
# [2] = system: green foxtail (Setaria viridis); experiment: Herbicidal effect on green foxtail (soil treatment); details: Comparative Test 2, green foxtail, read-out: Growth inhibition rate
# Excerpt: (§3) Upland soil was put into a 1/300,000 hectare (ha) pot, seeds of barnyardgrass (Echinochloa crus-galli) were sown, and about 1.5 cm of cover soil was put. […] On the next day after sowing, the spray solution was sprayed with a small sprayer for soil treatment.
# (§4) Upland soil was put into a 1/300,000 hectare (ha) pot, seeds of barnyardgrass (Echinochloa crus-galli), crabgrass (Digitaria sanguinalis), green foxtail (Setaria viridis), Italian ryegrass (Lolium multiflorum), redroot pigweed (Amaranthus retroflexus) and common chickweed (Stellaria media) were sown, and about 1.5 cm of cover soil was put.
# [3] = system: common lambsquarters (Chenopodium album); experiment: Herbicidal effect on common lambsquarters (foliar treatment); details: Comparative Test 1, common lambsquarters, read-out: Growth inhibition rate
# Experimental: as §1, §2
# [4] = system: foxtail shortawn (Alopecurus aequalis); experiment: Herbicidal effect on foxtail shortawn (foliar treatment); details: Comparative Test 1, foxtail shortawn, read-out: Growth inhibition rate
# Experimental: as §1, §2
# [5] = system: wild oat (Avena fatua); experiment: Herbicidal effect on wild oat (foliar treatment); details: Comparative Test 1, wild oat, read-out: Growth inhibition rate
# Experimental: as §1, §2
# [6] = system: redroot pigweed (Amaranthus retroflexus); experiment: Herbicidal effect on redroot pigweed (soil treatment)
# Excerpt: as §3, §4
# [7] = system: common chickweed (Stellaria media); experiment: Comparative Test 2: herbicidal effect on common chickweed (soil treatment); details: Comparative Test 2, common chickweed, read-out: Growth inhibition rate
# Excerpt: Upland soil was put into a 1/300,000 hectare (ha) pot, seeds of barnyardgrass (Echinochloa crus-galli), crabgrass (Digitaria sanguinalis), green foxtail (Setaria viridis), Italian ryegrass (Lolium multiflorum), redroot pigweed (Amaranthus retroflexus) and common chickweed (Stellaria media) were sown, and about 1.5 cm of cover soil was put. The Invention Compound (Aa-1-1, Aa-9-2) or the compound 4b described in Patent Document 1 was weighed to achieve a predetermined active ingredient dose, dissolved in acetone (containing 0.5 vol % of surfactant (TritonX-100: manufactured by Kishida Chemical Co., Ltd.)) or dimethyl sulfoxide and diluted with water (containing 0.1 vol % of agricultural spreader (Surfactant WK: manufactured by MARUWA Biochemical Co., Ltd.) in an amount corresponding to 1,000 liter per hectare, to prepare each spray solution. On the next day after sowing, each spray solution was sprayed with a small sprayer for soil treatment. On the 14th day after the soil treatment, the state of growth of each plant was visually observed, and the herbicidal effect was evaluated in accordance with the growth inhibition rate (%) of from 0 (equivalent to the non-treated area) to 100 (complete kill).
# [8] = system: common chickweed (Stellaria media); experiment: Herbicidal effect on common chickweed (foliar treatment); details: Comparative Test 1, common chickweed, read-out: Growth inhibition rate
# Experimental: as §1, §2
# [9] = system: crabgrass (Digitaria sanguinalis); experiment: Herbicidal effect on crabgrass (foliar treatment); details: Comparative Test 1, crabgrass, read-out: Growth inhibition rate
# Experimental: as §1, §2
# [10] = system: Italian ryegrass (Lolium multiflorum); experiment: Herbicidal effect on Italian ryegrass (foliar treatment); details: Comparative Test 1, Italian ryegrass, read-out: Growth inhibition rate
# Experimental: as §1, §2
# [11] = system: barnyardgrass (Echinochloa crus-galli); experiment: Herbicidal effect on barnyardgrass (foliar treatment); details: Comparative Test 1, barnyardgrass, read-out: Growth inhibition rate
# Experimental: as §1, §2
# [12] = system: barnyardgrass (Echinochloa crus-galli); experiment: Herbicidal effect on barnyardgrass (soil treatment); details: Comparative Test 2, barnyardgrass, read-out: Growth inhibition rate
# Excerpt: as §3, §4
# [13] = system: annual bluegrass (Poa annua); experiment: Herbicidal effect on annual bluegrass (foliar treatment); details: Comparative Test 1, annual bluegrass, read-out: Growth inhibition rate
# Experimental: as §1, §2
# [14] = system: Italian ryegrass (Lolium multiflorum); experiment: Herbicidal effect on Italian ryegrass (soil treatment)
# Excerpt: as §3, §4
# [15] = system: green foxtail (Setaria viridis); experiment: Herbicidal effect on green foxtail (foliar treatment); details: Comparative Test 1, green foxtail, read-out: Growth inhibition rate
# Experimental: as §1, §2
# [16] = system: crabgrass (Digitaria sanguinalis); experiment: Herbicidal effect on crabgrass (soil treatment)
# Excerpt: as §3, §4
# [17] = system: redroot pigweed (Amaranthus retroflexus); experiment: Herbicidal effect on redroot pigweed (foliar treatment); details: Comparative Test 1, redroot pigweed, read-out: Growth inhibition rate
# Experimental: as §1, §2
# [18] = Comparative Test 2, redroot pigweed, read-out: Growth inhibition rate
# [19] = Comparative Test 2, Italian ryegrass, read-out: Growth inhibition rate
# [20] = Comparative Test 2, crabgrass, read-out: Growth inhibition rate
SMILES,inhibition at 500 g/ha [1] [%],inhibition at 1000 g/ha [1] [%],inhibition at 500 g/ha [2] [%],inhibition at 1000 g/ha [2] [%],inhibition at 500 g/ha [3] [%],inhibition at 1000 g/ha [3] [%],inhibition at 500 g/ha [4] [%],inhibition at 1000 g/ha [4] [%],inhibition at 500 g/ha [5] [%],inhibition at 1000 g/ha [5] [%],"inhibition at 500 g/ha [6, 18] [%]","inhibition at 1000 g/ha [6, 18] [%]",inhibition at 500 g/ha [7] [%],inhibition at 1000 g/ha [7] [%],inhibition at 500 g/ha [8] [%],inhibition at 1000 g/ha [8] [%],inhibition at 500 g/ha [9] [%],inhibition at 1000 g/ha [9] [%],inhibition at 500 g/ha [10] [%],inhibition at 1000 g/ha [10] [%],further results
"CN(C(=O)/C=C/c1ccccc1)C1CCC1 [Compound 4b, reference compound]",< 30,≥ 90,< 30,< 30,< 30,< 30,< 30,< 30,< 30,< 30,< 30,< 30,< 30,< 30,< 30,30 to 50,< 30,< 30,< 30,< 30,"inhibition at 500 g/ha [11]: < 30%; inhibition at 1000 g/ha [11]: < 30%; inhibition at 500 g/ha [12]: < 30%; inhibition at 1000 g/ha [12]: < 30%; inhibition at 500 g/ha [13]: < 30%; inhibition at 1000 g/ha [13]: < 30%; inhibition at 500 g/ha [14, 19]: < 30%; inhibition at 1000 g/ha [14, 19]: < 30%; inhibition at 500 g/ha [15]: < 30%; inhibition at 1000 g/ha [15]: < 30%; inhibition at 500 g/ha [16, 20]: < 30%; inhibition at 1000 g/ha [16, 20]: < 30%; inhibition at 500 g/ha [17]: < 30%; inhibition at 1000 g/ha [17]: 30 to 50%"
COC(=O)[C@H]1C[C@H](NC(=O)C(F)(F)/C=C/c2cc(C)cc(F)c2)C1 [Aa-9-2],50 to 70,70 to 90,≥ 90,≥ 90,70 to 90,70 to 90,≥ 90,≥ 90,≥ 90,≥ 90,≥ 90,≥ 90,≥ 90,≥ 90,≥ 90,≥ 90,≥ 90,≥ 90,≥ 90,≥ 90,"inhibition at 500 g/ha ([6]; redroot pigweed, 14th day, read-out: growth inhibition rate): ≥ 70%; inhibition at 500 g/ha [11]: ≥ 90%; inhibition at 1000 g/ha [11]: ≥ 90%; inhibition at 500 g/ha [12]: ≥ 90%; inhibition at 1000 g/ha [12]: ≥ 90%; inhibition at 500 g/ha [13]: ≥ 90%; inhibition at 1000 g/ha [13]: ≥ 90%; inhibition at 500 g/ha [14, 19]: ≥ 90%; inhibition at 1000 g/ha [14, 19]: ≥ 90%; inhibition at 500 g/ha ([14]; Italian ryegrass, 14th day, read-out: growth inhibition rate): ≥ 70%; inhibition at 500 g/ha [15]: ≥ 90%; inhibition at 1000 g/ha [15]: ≥ 90%; inhibition at 500 g/ha [16, 20]: ≥ 90%; inhibition at 1000 g/ha [16, 20]: ≥ 90%; inhibition at 500 g/ha ([16]; crabgrass, 14th day, read-out: growth inhibition rate): ≥ 70%; inhibition at 500 g/ha [17]: 70 to 90%; inhibition at 1000 g/ha [17]: 70 to 90%"
